# Test results reported in publication PMC5424641 (Biomolecules & Therapeutics, 2017).
# Structures can show the parent of a compound that is named as a salt. Where two headings read alike, the source gives them in different places.
# Columns and labels:
# [1] = target: T1, urotensin II receptor (hUT) (Homo sapiens, UniProt Q9UKP6); assay: radioligand binding assay
# T1 sequence (Q9UKP6 1-389): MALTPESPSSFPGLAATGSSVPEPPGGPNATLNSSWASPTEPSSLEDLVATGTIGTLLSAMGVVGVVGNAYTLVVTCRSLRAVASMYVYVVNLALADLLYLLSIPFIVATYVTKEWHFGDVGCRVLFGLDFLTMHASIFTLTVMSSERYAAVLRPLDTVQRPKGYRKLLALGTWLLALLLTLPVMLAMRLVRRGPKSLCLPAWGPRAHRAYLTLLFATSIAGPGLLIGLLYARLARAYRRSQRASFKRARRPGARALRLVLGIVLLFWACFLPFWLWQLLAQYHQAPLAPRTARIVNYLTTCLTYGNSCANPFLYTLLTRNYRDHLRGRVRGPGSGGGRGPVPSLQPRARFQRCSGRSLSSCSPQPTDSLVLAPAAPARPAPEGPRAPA
# [2] = target: T1, urotensin II receptor (hUT); assay: radioligand binding assay; remark: listed apart in the source
Ki [1] [nM],Ki [2] [nM],Structure (SMILES)
31,–,"CN(C(=O)CN1C(=O)COc2cc(Cl)c(Cl)cc21)[C@@H](CN1CCOCC1)c1ccc(-c2ccc(C(=O)O)cc2)cc1 [GSK-1440115, 4′-[(1R)-1-[[(6,7-dichloro-3-oxo-2,3-dihydro-4H-1,4-benzoxazin-4-yl)acetyl](methyl)amino]-2-(4-morpholinyl)ethyl]-4-biphenylcarboxylic acid trifluoroacetate]"
–,4,"O=C(NC1CCN(Cc2ccc(OC3CCNCC3)c(Br)c2)CC1)c1csc2ccccc12 [KR-36996, N-(1-(3-bromo-4-(piperidin-4-yloxy)benzyl)piperidin-4-yl)benzo[b]thiophene-3-carboxamide]"
